Measurements taken from PubChem BioAssay AID330 (DTP/NCI, 2004).
Values joined by “and” are separate entries in the source; they are usually repeats but may differ in a detail not shown here. Equal values may be shown once. Toxic doses and inconclusive results are not listed. How the source made its calls: active means survival T/C of 150% or more; inactive means T/C below 125% in these data.

Test system: P388 leukemia ip, CD2F1 mice, survival T/C
Assay: NCI In Vivo Anticancer Drug Screen. Data for tumor model P388 Leukemia (intraperitoneal) in CD2F1 (CDF1) mice
Settings: endpoint: median survival time, higher = longer survival
How it was run: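 Mice carrying the transplanted tumor received test compound or vehicle. Survival was recorded in each group, and the value is the treated-group measurement divided by that of the vehicle-treated control group.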

[1] = dose: 100.0 mg/kg/injection, schedule: Q01DX009 (ip), vehicle: saline with Tween-80
[2] = dose: 200.0 mg/kg/injection, schedule: Q01DX009 (ip), vehicle: saline with Tween-80
[3] = dose: 400.0 mg/kg/injection, schedule: Q01DX009 (ip), vehicle: saline with Tween-80
[4] = dose: 25.0 mg/kg/injection, schedule: Q01DX009 (ip), vehicle: saline with Tween-80
[5] = dose: 50.0 mg/kg/injection, schedule: Q01DX009 (ip), vehicle: saline with Tween-80
[6] = dose: 50.0 mg/kg/injection, schedule: Q01DX009 (ip), vehicle: Klucel (hydroxypropylcellulose) (HPC)
[7] = dose: 100.0 mg/kg/injection, schedule: Q01DX009 (ip), vehicle: Klucel (hydroxypropylcellulose) (HPC)
[8] = dose: 200.0 mg/kg/injection, schedule: Q01DX009 (ip), vehicle: Klucel (hydroxypropylcellulose) (HPC)
[9] = dose: 50.0 mg/kg/injection, schedule: Q01DX005 (ip), vehicle: saline with Tween-80
[10] = dose: 100.0 mg/kg/injection, schedule: Q01DX005 (ip), vehicle: saline with Tween-80
[11] = dose: 200.0 mg/kg/injection, schedule: Q01DX005 (ip), vehicle: saline with Tween-80

Measured: T/C

O=c1[nH]c(=O)n(C2CC(O)C(CO)O2)cc1I (stereo not drawn)
inactive: dose: 40.0 mg/kg/injection, schedule: Q01DX009 (ip), vehicle: saline with Tween-80 101 % of control | dose: 80.0 mg/kg/injection, schedule: Q01DX009 (ip), vehicle: saline with Tween-80 105 % of control | [1] 118 % of control | dose: 100.0 mg/kg/injection, schedule: Q04DX003 (ip), vehicle: saline sonified 110 % of control | dose: 160.0 mg/kg/injection, schedule: Q01DX009 (ip), vehicle: saline with Tween-80 104 % of control | [2] 118 % of control | dose: 200.0 mg/kg/injection, schedule: Q04DX003 (ip), vehicle: saline sonified 120 % of control | dose: 320.0 mg/kg/injection, schedule: Q01DX009 (ip), vehicle: saline with Tween-80 122 % of control | [3] 118 % of control | dose: 400.0 mg/kg/injection, schedule: Q04DX003 (ip), vehicle: saline sonified 120 % of control

O=C(O)c1cccc(-n2ncc(Cl)c(Cl)c2=O)c1
inactive: dose: 12.5 mg/kg/injection, schedule: Q01DX009 (ip), vehicle: saline with Tween-80 113 % of control | [4] 108 % of control | [5] 99 % of control and 104 % of control | [2] 88 % of control

Cc1ccc(C)c(NC(=O)C#N)c1
inactive: dose: 60.0 mg/kg/injection, schedule: Q01DX005 (ip), vehicle: saline with Tween-80 93 % of control

Cc1ccc(-n2c(-c3ccc(-n4c(C)nc5ccc(Br)cc5c4=O)cc3)n[nH]c2=S)cc1
inactive: dose: 100.0 mg/kg/injection, schedule: Q04DX002 (ip), vehicle: Klucel (hydroxypropylcellulose) (HPC) 98 % of control | dose: 200.0 mg/kg/injection, schedule: Q04DX002 (ip), vehicle: Klucel (hydroxypropylcellulose) (HPC) 106 % of control | dose: 400.0 mg/kg/injection, schedule: Q04DX002 (ip), vehicle: Klucel (hydroxypropylcellulose) (HPC) 100 % of control

CCC[As](C)SC1OC(COC(C)=O)C(OC(C)=O)C(OC(C)=O)C1OC(C)=O (stereo not drawn)
inactive: [5] 110 % of control | [1] 110 % of control | [2] 110 % of control

CN(C)C1CC2C=CC1C1C=CC21 (stereo not drawn)
inactive: dose: 3.13 mg/kg/injection, schedule: Q01DX009 (ip), vehicle: water 100 % of control | dose: 6.25 mg/kg/injection, schedule: Q01DX009 (ip), vehicle: water 99 % of control | dose: 12.5 mg/kg/injection, schedule: Q01DX009 (ip), vehicle: water 100 % of control | dose: 25.0 mg/kg/injection, schedule: Q01DX009 (ip), vehicle: water 99 % of control | dose: 50.0 mg/kg/injection, schedule: Q01DX009 (ip), vehicle: water 98 % of control

CCOC(=O)CC(C)(O)C1CC1 (stereo not drawn)
inactive: dose: 25.0 mg/kg/injection, schedule: Q01DX009 (ip), vehicle: Klucel (hydroxypropylcellulose) (HPC) 96 % of control | [6] 101 % of control | [7] 105 % of control and 94 % of control | [8] 103 % of control and 122 % of control

CCN(CC)C(=O)c1cc(=O)c(C)c2oc3c(C)c(O)c(N)c(C(=O)N(CC)CC)c3nc1-2
inactive: dose: 60.0 mg/kg/injection, schedule: Q01DX005 (ip), vehicle: Klucel (hydroxypropylcellulose) (HPC) 92 % of control | dose: 120.0 mg/kg/injection, schedule: Q01DX005 (ip), vehicle: Klucel (hydroxypropylcellulose) (HPC) 87 % of control | dose: 240.0 mg/kg/injection, schedule: Q01DX005 (ip), vehicle: Klucel (hydroxypropylcellulose) (HPC) 86 % of control

C[N+]1(C)CCC(Cc2ccccc2)CC1
inactive: dose: 6.25 mg/kg/injection, schedule: Q01DX005 (ip), vehicle: saline 101 % of control | dose: 12.5 mg/kg/injection, schedule: Q01DX005 (ip), vehicle: saline 92 % of control

[Br][Sn]([Br])([CH2][Sn]([Br])([c]1ccccc1)[c]1ccccc1)[c]1ccccc1
inactive: dose: 12.5 mg/kg/injection, schedule: Q01DX005 (ip), vehicle: Klucel (hydroxypropylcellulose) (HPC) 124 % of control

CC(C)CC(NC(=O)CNC(=O)/C=C/c1ccco1)C(N)=O (stereo not drawn)
inactive: [9] 106 % of control | [10] 102 % of control | [11] 90 % of control

COC(=O)c1ccccc1NC(c1ccccn1)c1ccc2cccnc2c1O (stereo not drawn)
inactive: dose: 50.0 mg/kg/injection, schedule: Q01DX009 (ip), vehicle: DMSO 111 % of control | [6] 109 % of control | dose: 100.0 mg/kg/injection, schedule: Q01DX009 (ip), vehicle: DMSO 116 % of control | [7] 94 % of control | [8] 106 % of control | dose: 400.0 mg/kg/injection, schedule: Q01DX009 (ip), vehicle: Klucel (hydroxypropylcellulose) (HPC) 100 % of control

[Cl][Sb]([Cl])([Cl])([c]1ccccc1)[c]1ccccc1
inactive: dose: 6.25 mg/kg/injection, schedule: Q01DX009 (ip), vehicle: saline 101 % of control | dose: 12.5 mg/kg/injection, schedule: Q01DX009 (ip), vehicle: saline 98 % of control | dose: 25.0 mg/kg/injection, schedule: Q01DX009 (ip), vehicle: saline 91 % of control

CC(=O)NC(CO)C(=O)c1ccc(S(=O)(=O)c2ccccc2)cc1 (stereo not drawn)
inactive: [1] 97 % of control | [2] 91 % of control | [3] 94 % of control

CN(C)c1ccc(NC2=C(Cl)C(=O)C(Nc3ccc(N(C)C)cc3)=C(Cl)C2=O)cc1
inactive: dose: 25.0 mg/kg/injection, schedule: Q01DX005 (ip), vehicle: saline with Tween-80 101 % of control | [9] 92 % of control | [10] 88 % of control

CCC(c1ccc(OC)cc1)c1cc2c(cc1OC)OCO2 (stereo not drawn)
inactive: dose: 50.0 mg/kg/injection, schedule: Q01DX005 (ip), vehicle: Klucel (hydroxypropylcellulose) (HPC) 97 % of control | dose: 100.0 mg/kg/injection, schedule: Q01DX005 (ip), vehicle: Klucel (hydroxypropylcellulose) (HPC) 106 % of control | dose: 200.0 mg/kg/injection, schedule: Q01DX005 (ip), vehicle: Klucel (hydroxypropylcellulose) (HPC) 113 % of control

O=S1(=O)CC(c2ccccc2)(N2CCOCC2)C1
inactive: [5] 94 % of control | [1] 96 % of control | [2] 105 % of control

CC([NH-])C(=O)O.CC([NH-])C(=O)O.[Cu+2] (stereo not drawn)
inactive: dose: 12.5 mg/kg/injection, schedule: Q01DX009 (ip), vehicle: Klucel (hydroxypropylcellulose) (HPC) 99 % of control

Nc1c(Cl)cc(C(=O)NC2CC2)cc1Cl
inactive: [4] 94 % of control and 95 % of control | [5] 100 % of control and 88 % of control | [1] 102 % of control and 113 % of control | [2] 109 % of control and 89 % of control

N#C/C(=C1/OC(=N)C(c2c(Cl)cccc2Cl)C1=O)c1c(Cl)cccc1Cl (stereo not drawn)
inactive: [9] 100 % of control | [10] 101 % of control

CCC/C(=N\NC(=S)N1CCN(c2ccccn2)CC1)c1ccccn1
inactive: dose: 6.25 mg/kg/injection, schedule: Q01DX005 (ip), vehicle: saline with Tween-80 102 % of control and 104 % of control | dose: 12.5 mg/kg/injection, schedule: Q01DX005 (ip), vehicle: saline with Tween-80 107 % of control and 110 % of control

CC(=O)OC1(C)CC1(C)C (stereo not drawn)
inactive: [9] 100 % of control | [10] 98 % of control | [11] 98 % of control

CN1CCC(O)CC1C(=O)O (stereo not drawn)
inactive: dose: 50.0 mg/kg/injection, schedule: Q01DX009 (ip), vehicle: saline 98 % of control | dose: 100.0 mg/kg/injection, schedule: Q01DX009 (ip), vehicle: saline 104 % of control | dose: 200.0 mg/kg/injection, schedule: Q01DX009 (ip), vehicle: saline 105 % of control

O=C1/C(=C/c2ccc(O)cc2)Oc2cc(O)ccc21
inactive: dose: 100.0 mg/kg/injection, schedule: Q01DX001 (ip), vehicle: saline with Tween-80 97 % of control | dose: 200.0 mg/kg/injection, schedule: Q01DX001 (ip), vehicle: saline with Tween-80 91 % of control | dose: 400.0 mg/kg/injection, schedule: Q01DX001 (ip), vehicle: saline with Tween-80 92 % of control
